Test results reported in ChEMBL document CHEMBL1255299, “Killing of Neisseria gonorrhoeae, Streptococcus agalactiae (group B streptococcus), Haemophilus ducreyi, and vaginal Lactobacillus by 3-O-octyl-sn-glycerol” (2008).
Calls of active or inactive are those of the source. The rule behind the calls is not given here.

How the values were obtained:
Neisseria gonorrhoeae [1] = assay: Microbicidal activity against Neisseria gonorrhoeae ATCC 49226 after 30 mins; assay type: functional; details: ATCC 49226, 0.5 h
Neisseria gonorrhoeae [2] = assay: Microbicidal activity against Neisseria gonorrhoeae ATCC 19424 after 30 mins; assay type: functional; details: ATCC 19424, 0.5 h
Lactobacillus crispatus [3] = assay: Microbicidal activity against Lactobacillus crispatus after 30 mins; assay type: functional; details: 0.5 h
Lactobacillus jensenii [4] = assay: Microbicidal activity against Lactobacillus jensenii after 30 mins; assay type: functional; details: 0.5 h
Lactobacillus iners = assay: Microbicidal activity against Lactobacillus iners after 30 mins; assay type: functional
Lactobacillus vaginalis = assay: Microbicidal activity against Lactobacillus vaginalis after 30 mins; assay type: functional
Streptococcus agalactiae [5] = assay: Microbicidal activity against Streptococcus agalactiae serotype 1A after 30 mins; assay type: functional; details: serotype IA, 0.5 h
Streptococcus agalactiae [6] = assay: Microbicidal activity against Streptococcus agalactiae serotype 1B after 30 mins; assay type: functional; details: 0.5 h
Streptococcus agalactiae [7] = assay: Microbicidal activity against Streptococcus agalactiae serotype II after 30 mins; assay type: functional; details: 0.5 h
Streptococcus agalactiae [8] = assay: Microbicidal activity against Streptococcus agalactiae serotype III after 30 mins; assay type: functional; details: 0.5 h
Streptococcus agalactiae [9] = assay: Microbicidal activity against Streptococcus agalactiae serotype IV after 30 mins; assay type: functional; details: 0.5 h
Streptococcus agalactiae [10] = assay: Microbicidal activity against Streptococcus agalactiae serotype V after 30 mins; assay type: functional; details: 0.5 h
[Haemophilus] ducreyi = Microbicidal activity against Haemophilus ducreyi after 30 mins; assay type: functional; details: 0.5 h
Lactobacillus crispatus [11] = assay: Antimicrobial activity against Lactobacillus crispatus ATCC 33197 at 4.4 mM in presence of 0.7 mM human serum albumin; assay type: functional
Lactobacillus crispatus [12] = assay: Antimicrobial activity against Lactobacillus crispatus ATCC 33197 at 4.4 mM in presence of 0.6 mM human serum albumin; assay type: functional
Lactobacillus crispatus [13] = assay: Antimicrobial activity against Lactobacillus crispatus ATCC 33197 at 4.4 mM in presence of 0.5 mM human serum albumin; assay type: functional
Lactobacillus crispatus [14] = assay: Antimicrobial activity against Lactobacillus crispatus ATCC 33197 at 4.4 mM in presence of 0.4 mM human serum albumin; assay type: functional
Lactobacillus crispatus [15] = assay: Antimicrobial activity against Lactobacillus crispatus ATCC 33197 at 4.4 mM in presence of 0.3 mM human serum albumin; assay type: functional
Lactobacillus crispatus [16] = assay: Antimicrobial activity against Lactobacillus crispatus ATCC 33197 at 4.4 mM in presence of 0.2 mM human serum albumin; assay type: functional
Lactobacillus crispatus [17] = assay: Antimicrobial activity against Lactobacillus crispatus ATCC 33197 at 4.4 mM in presence of 0.1 mM human serum albumin; assay type: functional
Lactobacillus crispatus [18] = assay: Antimicrobial activity against Lactobacillus crispatus ATCC 33197 at 4.4 mM in presence of 0.05 mM human serum albumin; assay type: functional
Lactobacillus crispatus [19] = assay: Antimicrobial activity against Lactobacillus crispatus ATCC 20225 at 4.4 mM in presence of 0.7 mM human serum albumin; assay type: functional
Lactobacillus crispatus [20] = assay: Antimicrobial activity against Lactobacillus crispatus ATCC 20225 at 4.4 mM in presence of 0.6 mM human serum albumin; assay type: functional
Lactobacillus crispatus [21] = assay: Antimicrobial activity against Lactobacillus crispatus ATCC 20225 at 4.4 mM in presence of 0.5 mM human serum albumin; assay type: functional
Lactobacillus crispatus [22] = assay: Antimicrobial activity against Lactobacillus crispatus ATCC 20225 at 4.4 mM in presence of 0.4 mM human serum albumin; assay type: functional
Lactobacillus crispatus [23] = assay: Antimicrobial activity against Lactobacillus crispatus ATCC 20225 at 4.4 mM in presence of 0.3 mM human serum albumin; assay type: functional
Lactobacillus crispatus [24] = assay: Antimicrobial activity against Lactobacillus crispatus ATCC 20225 at 4.4 mM in presence of 0.2 mM human serum albumin; assay type: functional
Lactobacillus crispatus [25] = assay: Antimicrobial activity against Lactobacillus crispatus ATCC 20225 at 4.4 mM in presence of 0.1 mM human serum albumin; assay type: functional
Lactobacillus crispatus [26] = assay: Antimicrobial activity against Lactobacillus crispatus ATCC 20225 at 4.4 mM in presence of 0.05 mM human serum albumin; assay type: functional
Lactobacillus jensenii [27] = assay: Antimicrobial activity against Lactobacillus jensenii ATCC 25258 at 4.4 mM in presence of 0.7 mM human serum albumin; assay type: functional
Lactobacillus jensenii [28] = assay: Antimicrobial activity against Lactobacillus jensenii ATCC 25258 at 4.4 mM in presence of 0.6 mM human serum albumin; assay type: functional
Lactobacillus jensenii [29] = assay: Antimicrobial activity against Lactobacillus jensenii ATCC 25258 at 4.4 mM in presence of 0.5 mM human serum albumin; assay type: functional
Lactobacillus jensenii [30] = assay: Antimicrobial activity against Lactobacillus jensenii ATCC 25258 at 4.4 mM in presence of 0.4 mM human serum albumin; assay type: functional
Lactobacillus jensenii [31] = assay: Antimicrobial activity against Lactobacillus jensenii ATCC 25258 at 4.4 mM in presence of 0.3 mM human serum albumin; assay type: functional
Lactobacillus jensenii [32] = assay: Antimicrobial activity against Lactobacillus jensenii ATCC 25258 at 4.4 mM in presence of 0.2 mM human serum albumin; assay type: functional
Lactobacillus jensenii [33] = assay: Antimicrobial activity against Lactobacillus jensenii ATCC 25258 at 4.4 mM in presence of 0.1 mM human serum albumin; assay type: functional
Lactobacillus jensenii [34] = assay: Antimicrobial activity against Lactobacillus jensenii ATCC 25258 at 4.4 mM in presence of 0.05 mM human serum albumin; assay type: functional
Neisseria gonorrhoeae [35] = assay: Antimicrobial activity against Neisseria gonorrhoeae ATCC 49226 at 4.4 mM in presence of 0.7 mM human serum albumin; assay type: functional, organism-based
Neisseria gonorrhoeae [36] = assay: Antimicrobial activity against Neisseria gonorrhoeae ATCC 49226 at 4.4 mM in presence of 0.6 mM human serum albumin; assay type: functional, organism-based
Neisseria gonorrhoeae [37] = assay: Antimicrobial activity against Neisseria gonorrhoeae ATCC 49226 at 4.4 mM in presence of 0.5 mM human serum albumin; assay type: functional, organism-based
Neisseria gonorrhoeae [38] = assay: Antimicrobial activity against Neisseria gonorrhoeae ATCC 49226 at 4.4 mM in presence of 0.4 mM human serum albumin; assay type: functional, organism-based
Neisseria gonorrhoeae [39] = assay: Antimicrobial activity against Neisseria gonorrhoeae ATCC 49226 at 4.4 mM in presence of 0.3 mM human serum albumin; assay type: functional, organism-based
Neisseria gonorrhoeae [40] = assay: Antimicrobial activity against Neisseria gonorrhoeae ATCC 49226 at 4.4 mM in presence of 0.2 mM human serum albumin; assay type: functional, organism-based
Neisseria gonorrhoeae [41] = assay: Antimicrobial activity against Neisseria gonorrhoeae ATCC 49226 at 4.4 mM in presence of 0.1 mM human serum albumin; assay type: functional, organism-based
Neisseria gonorrhoeae [42] = assay: Antimicrobial activity against Neisseria gonorrhoeae ATCC 49226 at 4.4 mM in presence of 0.05 mM human serum albumin; assay type: functional, organism-based
Pseudomonas aeruginosa [43] = assay: Antimicrobial activity against Pseudomonas aeruginosa at 4.4 mM in presence of 0.6 mM delipidated human serum albumin; assay type: functional, organism-based
Pseudomonas aeruginosa [44] = assay: Antimicrobial activity against Pseudomonas aeruginosa at 4.4 mM in presence of 0.5 mM delipidated human serum albumin; assay type: functional, organism-based
Pseudomonas aeruginosa [45] = assay: Antimicrobial activity against Pseudomonas aeruginosa at 4.4 mM in presence of 0.4 mM delipidated human serum albumin; assay type: functional, organism-based
Pseudomonas aeruginosa [46] = assay: Antimicrobial activity against Pseudomonas aeruginosa at 4.4 mM in presence of 0.3 mM delipidated human serum albumin; assay type: functional, organism-based
Pseudomonas aeruginosa [47] = assay: Antimicrobial activity against Pseudomonas aeruginosa at 4.4 mM in presence of 0.2 mM delipidated human serum albumin; assay type: functional, organism-based
Pseudomonas aeruginosa [48] = assay: Antimicrobial activity against Pseudomonas aeruginosa at 4.4 mM in presence of 0.1 mM delipidated human serum albumin; assay type: functional, organism-based
Pseudomonas aeruginosa [49] = assay: Antimicrobial activity against Pseudomonas aeruginosa at 4.4 mM in presence of 0.6 mM human serum albumin; assay type: functional, organism-based
Pseudomonas aeruginosa [50] = assay: Antimicrobial activity against Pseudomonas aeruginosa at 4.4 mM in presence of 0.5 mM human serum albumin; assay type: functional, organism-based
Pseudomonas aeruginosa [51] = assay: Antimicrobial activity against Pseudomonas aeruginosa at 4.4 mM in presence of 0.4 mM human serum albumin; assay type: functional, organism-based
Pseudomonas aeruginosa [52] = assay: Antimicrobial activity against Pseudomonas aeruginosa at 4.4 mM in presence of 0.3 mM human serum albumin; assay type: functional, organism-based
Pseudomonas aeruginosa [53] = assay: Antimicrobial activity against Pseudomonas aeruginosa at 4.4 mM in presence of 0.2 mM human serum albumin; assay type: functional, organism-based
Pseudomonas aeruginosa [54] = assay: Antimicrobial activity against Pseudomonas aeruginosa at 4.4 mM in presence of 0.1 mM human serum albumin; assay type: functional, organism-based

CCCCCCCCOC[C@H](O)CO
MCC (Neisseria gonorrhoeae [1]): 2.5 mM | MCC (Neisseria gonorrhoeae [2]): 2.5 mM | MCC (Lactobacillus crispatus [3]): 5 mM | MCC (Lactobacillus jensenii [4]): 5 mM | MCC (Lactobacillus iners): 5 mM | MCC (Lactobacillus vaginalis): > 10 mM | MCC (Streptococcus agalactiae [5]): 5 mM | MCC (Streptococcus agalactiae [6]): 5 mM | MCC (Streptococcus agalactiae [7]): 5 mM | MCC (Streptococcus agalactiae [8]): 5 mM | MCC (Streptococcus agalactiae [9]): 5 mM | MCC (Streptococcus agalactiae [10]): 5 mM | MCC ([Haemophilus] ducreyi): 1.25 mM | Activity (Lactobacillus crispatus [11]): inactive | Activity (Lactobacillus crispatus [12]): inactive | Activity (Lactobacillus crispatus [13]): inactive | Activity (Lactobacillus crispatus [14]): inactive | Activity (Lactobacillus crispatus [15]): inactive | Activity (Lactobacillus crispatus [16]): Active | Activity (Lactobacillus crispatus [17]): Active | Activity (Lactobacillus crispatus [18]): Active | Activity (Lactobacillus crispatus [19]): inactive | Activity (Lactobacillus crispatus [20]): inactive | Activity (Lactobacillus crispatus [21]): inactive | Activity (Lactobacillus crispatus [22]): inactive | Activity (Lactobacillus crispatus [23]): inactive | Activity (Lactobacillus crispatus [24]): Active | Activity (Lactobacillus crispatus [25]): Active | Activity (Lactobacillus crispatus [26]): Active | Activity (Lactobacillus jensenii [27]): inactive | Activity (Lactobacillus jensenii [28]): inactive | Activity (Lactobacillus jensenii [29]): inactive | Activity (Lactobacillus jensenii [30]): inactive | Activity (Lactobacillus jensenii [31]): Active | Activity (Lactobacillus jensenii [32]): Active | Activity (Lactobacillus jensenii [33]): Active | Activity (Lactobacillus jensenii [34]): Active | Activity (Neisseria gonorrhoeae [35]): inactive | Activity (Neisseria gonorrhoeae [36]): Active | Activity (Neisseria gonorrhoeae [37]): Active | Activity (Neisseria gonorrhoeae [38]): Active | Activity (Neisseria gonorrhoeae [39]): Active | Activity (Neisseria gonorrhoeae [40]): Active | Activity (Neisseria gonorrhoeae [41]): Active | Activity (Neisseria gonorrhoeae [42]): Active | Activity (Pseudomonas aeruginosa [43]): inactive | Activity (Pseudomonas aeruginosa [44]): inactive | Activity (Pseudomonas aeruginosa [45]): inactive | Activity (Pseudomonas aeruginosa [46]): inactive | Activity (Pseudomonas aeruginosa [47]): inactive | Activity (Pseudomonas aeruginosa [48]): Active | Activity (Pseudomonas aeruginosa [49]): inactive | Activity (Pseudomonas aeruginosa [50]): inactive | Activity (Pseudomonas aeruginosa [51]): Active | Activity (Pseudomonas aeruginosa [52]): Active | Activity (Pseudomonas aeruginosa [53]): Active | Activity (Pseudomonas aeruginosa [54]): Active

CCCCCCCCOC[C@@H](O)CO
MCC (Neisseria gonorrhoeae [1]): 2.5 mM | MCC (Neisseria gonorrhoeae [2]): 2.5 mM | MCC (Lactobacillus crispatus [3]): 5 mM | MCC (Lactobacillus jensenii [4]): 3 mM | MCC (Lactobacillus iners): 4 mM
